Experiment [1] relates to 3T3-L1 adipocytes. Put plainly: cAMP levels in 3T3-L1 adipocytes. It counts as cell-based. The method, then: (§1) (A) Glycerol release from 3T3-L1 adipocytes treated with or without different concentrations of TNFα as indicated for 24 hr followed by treatment with or without 10 μM ISO or 50 μM FSK. (B) cAMP levels from 3T3-L1 adipocytes treated with or without 100 ng/ml TNFα for 24 hr followed by treatment with or without 10 μM ISO or 50 μM FSK in the presence or absence of pretreatment of 50 μM Amlexanox (Am). (C) cAMP levels from 3T3-L1 adipocytes treated with or without 100 ng/ml TNFα for 24 hr followed by treatment with or without 50 μM FSK in the presence or absence of pretreatment of 1 μM CAY10576 (CAY). (D) Immunoblots of whole cell lysates from 3T3-L1 adipocytes treated with or without different concentrations of TNFα as same as FIG. 2A for 24 hr followed by treatment with or without 10 μM ISO or 50 μM FSK. Results were replicated in multiple experiments. ‘[’ indicates total HSL. ‘n.s.’ represents non-specific band. Arrow indicates CGI-58. (E) Immunoblots of whole cell lysates from 3T3-L1 adipocytes treated with or without 50 ng/ml TNFα or 100 μg/ml poly (I:C) for 24 hr followed by treatment with or without 10 μM ISO for 15 min in the presence or absence of pretreatment with increasing concentrations (0, 10, 50, and 200 μM) of amlexanox for 30 min.
(A) cAMP levels from 3T3-L1 adipocytes expressing empty vector, Flag-IKKε, or Flag-TBK1 treated with or without 50 μM FSK, 250 μM IBMX, or together for 15 min. (B) cAMP levels from 3T3-L1 adipocytes expressing empty vector, Flag-IKKε, or Flag-TBK1 treated with or without 10 μM ISO or 50 μM FSK together with or without 10 μM Zardaverine (Zarda) for 15 min. (C) 32P phospho-image of in vitro kinase reaction using either immunoprecipitated HA-PDE3B from HEK293T cells or 1 μg MBP (myelin basic protein) as a substrate with recombinant kinases as indicated. (D) Immunoblots of immunoprecipitation with anti-HA antibodies followed by treatment with or without CIP (top panel) and whole cell lysates (bottom panel) from Cos-1 cells co-expressing HA-PDE3B with Flag-IKKε/TBK1 or Flag-IKKε/TBK1 K38A. D.E. stands for dark exposure and L.E. stands for light exposure. (E) Immunoblots of GST-14-3-3 pulldown from HEK293T cells co-expressing HA-PDE3B with Flag-TBK1 or Flag-TBK1 K38A.
Obesity is accompanied by infiltration of proinflammatory macrophages into adipose tissue; these cells secrete inflammatory cytokines, such as TNFα, which generate insulin resistance by stimulating catabolic pathways (Hotamisligil, 2006; Lumeng et al., 2007; Ye and Keller, 2010; Ouchi et al., 2011; herein incorporated by reference in their entireties). Although TNFα is known to increase lipolysis in adipocytes (Zhang et al., 2002; Souza et al., 2003; Green et al., 2004; Plomgaard et al., 2008; herein incorporated by reference in their entireties), there is also evidence of a counterinflammatory response in obesity that may serve to repress energy expenditure (Gregor and Hotamisligil, 2011; Saltiel, 2012; Calay and Hotamisligil, 2013; Reilly et al., 2013; herein incorporated by reference in their entireties). Experiments were conducted during development of embodiments of the present invention using TNFα to model the inflammatory milieu of obese adipose tissue in cell culture to determine whether the cytokine might also regulate β-adrenergic signaling in this context. While short-term treatment with TNFα augmented the increase in cAMP produced by forskolin treatment, this effect declined after 12 hr. […] Thus, the catabolic effects of the proinflammatory cytokine TNFα in adipocytes are transient and followed by an inhibitory phase.
Treatment of 3T3-L1 adipocytes with TNFα for 24 hr induced the expression of IKKε and increased TBK1 phosphorylation at the active site in a manner that was dependent on the activity of IKKβ and the NFκB pathway (Reilly et al., 2013; herein incorporated by reference in its entirety). […]

For experiment [2], the system named is 3T3-L1 adipocytes. The experiment in a line: Ucp1 gene expression in 3T3-L1 adipocytes. As to conditions: empty vector-expressing cells; 10 μM for 4 hr; treated relative to control samples. It counts as cell-based. Here is the method: (§2) (A) Fold increase in Ucp1 expression in 3T3-L1 adipocytes expressing empty vector, Flag-IKKε, or Flag-IKKε K38A following treatment with or without 10 μM ISO (black bars) or 10 μM CL-316,243 (CL, gray bars) for 4 hr. (B) Glycerol release from 3T3-L1 adipocytes expressing empty vector (white bars), Flag-IKKε (black bars), or Flag-IKKε K38A (gray bars) treated with or without 10 μM ISO or 10 μM CL. (C) Immunoblots of whole cell lysates from FIG. 1B. Results were replicated in triplicate. D.E. stands for dark exposure and L.E. stands for light exposure. (D) Immunoblots of whole cell lysates from 3T3-L1 adipocytes expressing empty vector or Flag-IKKε treated with or without 50 μM FSK for 15 min. (E) cAMP levels from 3T3-L1 adipocytes expressing empty vector, Flag-IKKε, or Flag-IKKε K38A treated with or without 10 μM ISO or 50 μM FSK for 15 min.
Sympathetic activation of adipose tissue is involved in maintaining energy balance by stimulating lipolysis and fat oxidation (Coppack et al., 1994; Langin, 2006; Festuccia et al., 2011; herein incorporated by reference in their entireties). Activation of β-adrenergic signaling by either β-adrenergic agonists or cold exposure in white and brown adipose tissue initiates a cascade of events through cyclic AMP (cAMP), culminating in the transcriptional upregulation of Ucp1, which results in increased proton leak and energy expenditure (Himms-Hagen et al., 2000; Cao et al., 2004; Yehuda-Shnaidman et al., 2010; herein incorporated by reference in their entireties). […] This effect was further analyzed by overexpressing IKKε in 3T3-L1 adipocytes and examining Ucp1 gene expression after treatment with the non-selective β-adrenergic agonist, isoproterenol (ISO), or the β3-adrenergic agonist, CL-316,243. Fold difference in Ucp1 gene expression was calculated by normalization of relative Ucp1 mRNA levels in treated relative to control samples. […] The induction of Ucp1 gene expression in response to ISO or CL-316,243 was blunted when WT IKKε was overexpressed in these cells. […]

Experiment [3] deals with 3T3-L1 adipocytes. The experiment in a line: Glycerol release (lipolysis) from 3T3-L1 adipocytes. It counts as cell-based. As to conditions: for lipolysis (glycerol release): empty vector-expressing cells, 10 μM. The method, then: as §2, §1
The obesity-dependent increase was modeled in the noncanonical IKKs by overexpressing IKKε in 3T3-L1 adipocytes, followed by assay of glycerol release in response to ISO or CL-316,243. […] Overexpression of TBK1 reduced phosphorylation of HSL in response to isoproterenol or the adenylyl cyclase activator, forskolin (FIG. 1). Identical results were obtained when IKKε was overexpressed in 3T3-L1 adipocytes stimulated with forskolin (FIG. 1D), as detected by western blotting with an anti-phospho-PKA substrate motif antibody. […]

For another experiment, the system named is diet-induced obese mice. Put plainly: Serum FFA and glycerol after CL-316,243 injection in ND- or HFD-fed mice. It counts as in vivo. As to conditions: normal diet mice, vehicle and amlexanox-treated; 15 min after IP CL-316,243 injection. The method, then:
(A) Fold increase in serum FFA (left panel) and glycerol (right panel) levels 15 min after CL-316,243 injection in ND- or HFD-fed mice treated with amlexanox or vehicle control for 4 days. (B) Glycerol release from ex vivo epididymal (left panel) and inguinal (right panel) WATs after 1 hr pretreatment with amlexanox or vehicle. CL-316,243 treatment was started at time zero. (C) Immunoblots in inguinal WAT lysates from FIG. 5B after 60 min of CL-316,243 treatment. (D) cAMP levels in epididymal WAT 20 min after CL-316,243 (CL) or saline control injection in HFD-fed mice treated with amlexanox or vehicle control for 4 days. (E) Immunoblots in epididymal WAT 5 min after CL-316,243 or saline control injection in HFD-fed mice treated with amlexanox or vehicle control for 4 days. (F) Relative oxygen comsumption of mice in each treatment group.
To test the functional importance of the noncanonical IKKs in maintaining energy balance in vivo, experiments were conducted during development of embodiments of the present invention to investigate whether the administration of a selective inhibitor of IKKε and TBK1, amlexanox, can reverse diet-induced catecholamine resistance in rodentsMice were fed a high fat or normal diet, treated them with amlexanox by oral gavage for 4 days (prior to the point when weight loss is seen), and then gave a single intraperitoneal (IP) injection of the β3-adrenergic agonist CL-316,243. Injection of CL-316,243 stimulated a threefold increase in serum FFA and glycerol levels in both vehicle and amlexanox-treated mice on normal diet (ND).

Experiment [4] concerns 3T3-L1 adipocytes. Put plainly: Immunoblots of β-adrenergic/PKA signaling (HSL, perilipin, PKA substrate, p38 phosphorylation) in 3T3-L1 adipocytes. It counts as cell-based. As to conditions: treatment with Poly (I:C). Here is the method:
as §1, with “Results were replicated in multiple experiments. ‘[’ indicates total HSL. ‘n.s.’ represents non-specific band.” left out
Experiments were conducted during development of embodiments of the present invention to determine whether the repression of β-adrenergic sensitivity produced by longer-term treatment with TNFα is due to increased activity of the noncanonical IKKs.

In the case of `COc1cc2ncn(-c3cc(OCc4ccccc4S(C)(=O)=O)c(C#N)s3)c2cc1OC` [CAY10576], the “rescue of TNFα-decreased forskolin-stimulated cAMP production” value in the experiment with 3T3-L1 adipocytes [1] (preincubation with 1 μM CAY10576, 100 ng/ml TNFα 24 hr, 50 μM FSK) is “largely rescued”.
As to `C[C@H](Cc1ccc2c(c1)OC(C(=O)[O-])(C(=O)[O-])O2)NC[C@H](O)c1cccc(Cl)c1.[Na+].[Na+]` [CL-316,243], the “increase in Ucp1 mRNA levels” value in the experiment on 3T3-L1 adipocytes [2] is “twofold”. In the experiment on 3T3-L1 adipocytes [3], the “lipolysis (glycerol release)” value is “increased lipolysis”. In the experiment with diet-induced obese mice, the “increase in serum FFA levels” value is given as “threefold” and the “increase in serum glycerol levels” value is reported as “threefold”.
In the case of `CC(C)Cn1c(=O)n(C)c(=O)c2[nH]cnc21` [IBMX], in the experiment with 3T3-L1 adipocytes [1] (250 μM IBMX, 50 μM FSK, 15 min), the “cAMP production in response to forskolin in adipocytes expressing IKKε or TBK1” value is given as “rescued the full stimulation of cAMP production”.
On to `CC(C)NCC(O)c1ccc(O)c(O)c1` (centres unmarked) [isoproterenol], for which the “increase in Ucp1 mRNA levels” value in the experiment with 3T3-L1 adipocytes [2] is on record as 1.6 fold. Moreover, the “lipolysis (glycerol release)” value in the experiment on 3T3-L1 adipocytes [3] is listed as “increased lipolysis”.
With Poly (I:C), the “stimulation of cAMP production in response to β-adrenergic stimulation” value in the experiment on 3T3-L1 adipocytes [1] (treatment with Poly (I:C)) is recorded as “reduced”. In addition, the “stimulation of lipolysis in response to β-adrenergic stimulation” value with 3T3-L1 adipocytes [3] (treatment with Poly (I:C)) is “reduced”. For the same compound, the “stimulation of phosphorylation in response to β-adrenergic stimulation” value in the experiment with 3T3-L1 adipocytes [4] is “reduced”.

For the origin of these results see patent US20150224089A1, “COMBINATIONS OF IKKi/TBK1 INHIBITORS WITH BETA ADRENERGIC AGONISTS OR SYMPATHETIC NERVOUS SYSTEM ACTIVATORS” (THE REGENTS OF THE UNIVERSITY OF MICHIGAN, priority 2014, published 2015).
